Values quoted from earlier work as cited in patent publication US9963464B2, “Macrocyclic compounds” (Bayer Pharma Aktiengesellschaft, priority 2014, dated 2018).

System: bronchospasms
Conditions: in vivo; cited from earlier work

In the case of `C[N+]1(C)[C@@H]2C[C@@H](OC(=O)C(O)(c3cccs3)c3cccs3)C[C@H]1[C@@H]1O[C@@H]12` [tiotropium], the “protection against bronchospasms (duration)” value is listed as “more than 6 hours”.
